# Values joined by “and” are separate entries in the source; they are usually repeats but may differ in a detail not shown here. Identical values can stand only once.
# Legend:
# Experiment in all cases: In-cell proteome-wide competitive ABPP, HEK293: other DUBs and proteins
# [1] = target: DUBs and other proteins in HEK293 cells (Homo sapiens, UniProt Q9Y5T5); details: replicates A-C; for Log2 reporter intensity values: USP16: competition with ABP 2, DMSO substract (FC); for Log2 reporter intensity values: USP16, DMSO subtracted
# [2] = target: T1, DUBs and other proteins in HEK293 cells (Homo sapiens, UniProt Q9Y4E8); details: replicates A-C; for Log2 reporter intensity values: USP15: competition with ABP 2, DMSO substract (FC); for Log2 reporter intensity values: USP15, DMSO subtracted
# T1 sequence (Q9Y4E8 1-981): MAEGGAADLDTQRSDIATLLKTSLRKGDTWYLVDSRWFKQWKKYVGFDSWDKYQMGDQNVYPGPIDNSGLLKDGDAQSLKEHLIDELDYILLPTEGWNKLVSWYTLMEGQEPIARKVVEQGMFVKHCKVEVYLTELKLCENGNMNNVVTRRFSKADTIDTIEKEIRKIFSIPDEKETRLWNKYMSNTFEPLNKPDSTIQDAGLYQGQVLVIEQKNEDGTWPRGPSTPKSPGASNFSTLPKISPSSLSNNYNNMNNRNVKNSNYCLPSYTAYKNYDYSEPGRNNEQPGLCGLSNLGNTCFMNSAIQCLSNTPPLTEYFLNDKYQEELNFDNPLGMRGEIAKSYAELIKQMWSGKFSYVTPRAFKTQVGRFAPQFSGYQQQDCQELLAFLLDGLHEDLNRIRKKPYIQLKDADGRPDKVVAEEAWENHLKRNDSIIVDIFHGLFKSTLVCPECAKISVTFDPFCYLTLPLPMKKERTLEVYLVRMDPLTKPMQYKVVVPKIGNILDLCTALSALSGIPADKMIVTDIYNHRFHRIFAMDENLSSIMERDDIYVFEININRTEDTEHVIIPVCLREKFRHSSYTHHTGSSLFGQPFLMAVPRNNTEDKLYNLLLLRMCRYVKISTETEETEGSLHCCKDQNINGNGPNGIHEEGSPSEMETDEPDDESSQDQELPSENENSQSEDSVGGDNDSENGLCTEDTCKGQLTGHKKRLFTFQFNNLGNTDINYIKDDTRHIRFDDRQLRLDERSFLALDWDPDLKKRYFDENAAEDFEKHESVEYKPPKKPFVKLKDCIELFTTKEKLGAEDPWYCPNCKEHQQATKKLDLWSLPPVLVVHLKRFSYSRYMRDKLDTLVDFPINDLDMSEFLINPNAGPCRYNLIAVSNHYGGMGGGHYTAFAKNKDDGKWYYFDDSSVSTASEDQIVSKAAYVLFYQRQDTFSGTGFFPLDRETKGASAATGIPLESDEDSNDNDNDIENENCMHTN
# [3] = target: T2, DUBs and other proteins in HEK293 cells (Homo sapiens, UniProt P40818); details: for Log2 reporter intensity values: USP8: competition with ABP 2, DMSO substract (FC), replicates A-B; for Log2 reporter intensity values: USP8, DMSO subtracted
# T2 sequence (P40818 1-1118): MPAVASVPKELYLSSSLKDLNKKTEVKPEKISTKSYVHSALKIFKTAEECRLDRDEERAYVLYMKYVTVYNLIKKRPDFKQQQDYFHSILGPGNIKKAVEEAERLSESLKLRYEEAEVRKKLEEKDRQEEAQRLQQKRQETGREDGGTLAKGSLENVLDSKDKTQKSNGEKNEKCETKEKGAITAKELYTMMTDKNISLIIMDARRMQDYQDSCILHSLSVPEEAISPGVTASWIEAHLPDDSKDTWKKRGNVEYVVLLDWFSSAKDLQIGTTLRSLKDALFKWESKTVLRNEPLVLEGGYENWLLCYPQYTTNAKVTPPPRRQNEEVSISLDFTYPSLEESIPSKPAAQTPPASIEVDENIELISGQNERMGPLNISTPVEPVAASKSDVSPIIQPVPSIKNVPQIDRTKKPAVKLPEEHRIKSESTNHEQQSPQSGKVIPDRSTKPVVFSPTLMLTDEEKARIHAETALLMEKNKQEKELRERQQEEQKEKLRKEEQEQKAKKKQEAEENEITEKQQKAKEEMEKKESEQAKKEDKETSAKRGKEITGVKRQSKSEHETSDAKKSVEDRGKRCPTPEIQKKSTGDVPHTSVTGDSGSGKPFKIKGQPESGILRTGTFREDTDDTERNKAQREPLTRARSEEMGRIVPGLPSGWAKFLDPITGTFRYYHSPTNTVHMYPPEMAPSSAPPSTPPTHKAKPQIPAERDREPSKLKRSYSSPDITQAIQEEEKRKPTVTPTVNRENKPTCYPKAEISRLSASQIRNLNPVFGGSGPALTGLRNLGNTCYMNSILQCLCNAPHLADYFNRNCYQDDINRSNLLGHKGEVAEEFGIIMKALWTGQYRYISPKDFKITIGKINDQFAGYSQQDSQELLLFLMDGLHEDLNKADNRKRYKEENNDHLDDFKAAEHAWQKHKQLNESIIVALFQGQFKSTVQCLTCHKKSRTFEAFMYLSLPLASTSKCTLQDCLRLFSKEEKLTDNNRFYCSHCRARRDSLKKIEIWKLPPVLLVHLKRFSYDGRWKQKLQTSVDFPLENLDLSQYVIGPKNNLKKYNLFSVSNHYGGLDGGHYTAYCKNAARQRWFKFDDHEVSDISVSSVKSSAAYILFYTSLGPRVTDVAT
# DUBs and other proteins in HEK293 cells (Homo sapiens, UniProt Q9Y5T5), sequence (Q9Y5T5 whole entry): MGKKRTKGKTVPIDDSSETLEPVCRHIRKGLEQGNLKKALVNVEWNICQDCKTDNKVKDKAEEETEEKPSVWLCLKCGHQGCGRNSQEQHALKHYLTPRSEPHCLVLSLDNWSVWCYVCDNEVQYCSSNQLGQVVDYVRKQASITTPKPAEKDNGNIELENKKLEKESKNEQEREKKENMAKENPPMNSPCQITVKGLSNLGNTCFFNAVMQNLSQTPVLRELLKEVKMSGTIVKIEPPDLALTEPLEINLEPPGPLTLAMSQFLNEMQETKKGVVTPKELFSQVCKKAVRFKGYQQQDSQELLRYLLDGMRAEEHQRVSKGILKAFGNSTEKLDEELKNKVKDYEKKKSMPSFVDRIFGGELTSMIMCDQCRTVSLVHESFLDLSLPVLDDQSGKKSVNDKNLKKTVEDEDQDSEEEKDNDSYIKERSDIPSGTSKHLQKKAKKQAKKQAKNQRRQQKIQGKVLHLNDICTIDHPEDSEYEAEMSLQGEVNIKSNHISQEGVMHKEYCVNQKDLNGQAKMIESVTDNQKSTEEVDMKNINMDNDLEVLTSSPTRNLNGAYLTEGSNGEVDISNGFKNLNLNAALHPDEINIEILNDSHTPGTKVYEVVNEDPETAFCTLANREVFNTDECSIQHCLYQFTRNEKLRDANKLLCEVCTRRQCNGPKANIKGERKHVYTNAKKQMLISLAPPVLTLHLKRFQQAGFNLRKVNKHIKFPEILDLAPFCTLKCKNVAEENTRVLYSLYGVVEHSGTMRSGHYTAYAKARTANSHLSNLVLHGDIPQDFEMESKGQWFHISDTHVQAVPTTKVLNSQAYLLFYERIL
smiles,measurement,setting,value
CC(=O)O/N=C1\C(=O)N(Cc2cc(Cl)ccc2Cl)c2ccc(Cl)cc21 [LDN],Log2 reporter intensity values: USP16,[1]; LDN at 5 μM,1.149 and 1.181 and 1.095
same,Log2 reporter intensity values: USP16,[1]; LDN at 25 μM,1.216 and 1.053 and 1.129
same,Log2 reporter intensity values,[1]; LDN at 5 μM,0.2004 and 0.2395 and 0.1308
same,Log2 reporter intensity values,[1]; LDN at 25 μM,0.2823 and 0.07456 and 0.1753
same,Log2 reporter intensity values,[1]; LDN_5 μM,0.1468 and 0.1784 and 0.09274
same,Log2 reporter intensity values,[1]; LDN_25 μM,0.2139 and 0.05085 and 0.127
same,Log2 reporter intensity values: USP15,[2]; LDN at 5 μM,1.005 and 0.9596 and 1.069
same,Log2 reporter intensity values: USP15,[2]; LDN at 25 μM,1.047 and 0.9593 and 0.9363
same,Log2 reporter intensity values,[2]; LDN at 5 μM,0.007561 and -0.05945 and 0.09653
same,Log2 reporter intensity values,[2]; LDN at 25 μM,0.06615 and -0.06 and -0.09494
same,Log2 reporter intensity values,[2]; LDN_5 μM,0.004993 and -0.04063 and 0.06894
same,Log2 reporter intensity values,[2]; LDN_25 μM,0.04666 and -0.041 and -0.06395
same,Log2 reporter intensity values: USP8,[3]; LDN at 5 μM,1.057 and 1.015
same,Log2 reporter intensity values: USP8,[3]; LDN at 25 μM,1.052 and 0.9465
same,Log2 reporter intensity values,"[3]; LDN at 5 μM, replicates A-C",0.08034 and 0.0217
same,Log2 reporter intensity values,"[3]; LDN at 25 μM, replicates A-C",0.07275 and -0.07932
same,Log2 reporter intensity values,"[3]; LDN_5 μM, replicates A-B (C NaN)",0.05482 and 0.0127
same,Log2 reporter intensity values,"[3]; LDN_25 μM, replicates A-B (C NaN)",0.04927 and -0.05595

# Reference: paper PMC7366380, “Discovery of a Potent and Selective Covalent Inhibitor and Activity-Based Probe for the Deubiquitylating Enzyme UCHL1, with Antifibrotic Activity” (Journal of the American Chemical Society, 2020)
